These results are taken from patent publication US4176009A, “Method of measuring collagenase activity” (Ajinomoto Co., Inc., priority 1976, dated 1979).

Non-standard residues stand in square brackets, D forms with d. Residues, ends and D or L forms follow the SMILES beside them. *: point of attachment. X1 = O=S(=O)(c1ccc(N=Nc2ccc(O)c3ccccc23)cc1)*; Dnp = O=[N+]([O-])c1ccc(*)c([N+](=O)[O-])c1; X2 = O=C(c1ccc(N=Nc2ccccc2)cc1)*

Experiment [1] concerns non-specific peptidases. Nature of the experiment: Time course of hydrolysis of substrate solution(a) by non-specific peptidase (Example 13). In kind it is biochemical, human. As to the method: (§1) Purified collagenase used in Examples was prepared from cultured media of tadpole skin explants as described in Biochem. Biophs. Acta, 263 564(1972), and non-specific peptidases were prepared by subjecting 5 ml of fresh adult human serum to chromatography on a calibrated Sephadex G-200 superfine gel column equilibrated with 0.05 M Tris-HCl buffer, pH 7.5, containing 0.15 M NaCl and 5 mM CaCl2, and gathering the effluent fractions corresponding to molecular weights of 100,000-180,000.
(§2) 0.9 ml Each of the substrate solutions was diluted with 0.88 ml of 0.05M tris-HCl buffer, pH 7.5, containing 0.15 M NaCl, and 5 m MCaCl2. The resulting solution was mixed with 0.02 ml of purified collagenase, and incubated. 0.2 ml Aliquots of the reaction mixture were taken out at 0, 10, 20, 40, 60 and 120 minutes, and mixed with 0.5 ml of 1M hydrochloric acid for stopping the enzyme reaction.
(§3) The DNP-peptide fragments released were extracted by vigorous shaking with 1 ml of ethyl acetate-n-butanol (1:0.15, V/V) followed by centrifugation at 3,000-5,000 rpm and room temperature for 10 minutes to separate two layers completely. The degree of hydrolysis was determined by measuring the absorbance of the organic layer at 365 nm.
1 ml of the substrate solution(a) prepared in Example 12 was mixed with 1.0 ml of non-specific peptidase, and the resulting solution was worked up as in Example 12.

The test system of experiment [2] is purified collagenase. Nature of the experiment: Rate of hydrolysis of DNP-peptide derivatives by purified collagenase (Example 15). The note with it: 5×10^-4 M peptide, purified collagenase 6.2 U/ml, 37° C., pH 7.5; average of three experiments; extraction with ethyl acetate (* compounds: ethyl acetate-n-butanol 1:0.15). In kind it is biochemical, tadpole. As to the method:
as §1
(§4) Various DNP-peptide derivatives were dissolved in 0.05 M Tris-HCl buffer, pH 7.5, containing 0.15 M NaCl, 5 mM CaCl2 and 0.02% bovine serum albumin to make a concentration of 5×10^-4 M. 0.1 ml Each of the peptide derivative solutions was mixed with an equal volume of purified collagenase (6.2 U/ml) or non-specific peptidases and incubated for various periods at 37° C. After stopping the enzyme reaction by adding 0.5 ml of 1 M HCl, the DNP-peptide fragments released were extracted by vigorous shaking with 1 ml of ethylacetate or ethyl acetate-n-butanol (1:0.15, V/V), and worked up as in Example 12.

In experiment [3] the test system is purified collagenase. Nature of the experiment: Time course of hydrolysis of substrate solutions by purified collagenase (Example 12). In kind it is biochemical, tadpole. The note with it: for 00365 (absorbance of the organic layer at 365 nm): pH 7.5. As to the method:
as §1
DNP-Pro-Gln-Gly-Ile-Ala-Gly-Gln-D-Arg-OH.CH3 COOH.H2 O (4.96 mg) was neutralized with 0.1N sodium hydroxide, and dissolved in 0.05M tris-HCl buffer, pH 7.5, containing 0.15 M NaCl and 5 m MCaCl2 to make 10 ml of the substrate solution (a) having a concentration of 5×10^-4 M. The substrate solution (b) was also prepared similarly by using DNP-Gln-Gly-Ile-Ala-Gly-Gln-D-Arg-OH.CH3 COOH.H2 O (4.48 mg).
as §2, §3

For experiment [4], the system named is collagenase in synovial fluids. Nature of the experiment: Hydrolysis of substrate solutions by synovial fluids from patients; collagenase activity (Example 14). Format: biochemical, human. Particulars: for OD365/0.1 ml ohr: 0 hr; for OD365/0.1 ml 2hr: 2 hr at 37° C.; for OD365/0.1 ml increment: 2 hr minus 0 hr. As to the method: as §3
0.2 ml Each of the substrate (solutions(a) and (b) prepared in Example 12 was mixed with 0.1 ml of synovial fluids from patients with osteoarthritis and rheumatoid arthritis, and incubated for 2 hours at 37° C. After stopping the enzyme reaction by adding 0.5 ml of 1 M hydrochloric acid, the DNP-peptide fragments released were extracted by vigorous shaking with 2 ml of ethyl acetate-n-butanol (1:0.15, V/V), and worked up as in Example 12 to obtain the collagenase activities.

Experiment [5] relates to non-specific peptidases. Nature of the experiment: Rate of hydrolysis of DNP-peptide derivatives by non-specific peptidases (Example 15). Format: biochemical, human. The note with it: 5×10^-4 M peptide, 37° C., pH 7.5; average of three experiments; extraction with ethyl acetate (* compounds: ethyl acetate-n-butanol 1:0.15). The protocol: as §1, §4
Experiment [6] relates to purified collagenase. Briefly: Hydrolysis of NABS-peptide by purified collagenase (Example 16). In kind it is biochemical, tadpole. Particulars: 5×10^-4 M in 20% ethanol-Tris-HCl pH 7.8, collagenase 17.4 U/ml, 60 minutes at 37° C. The protocol:
as §1
NABS-Pro-Gln-Gly-Ile-Ala-Gly-Gln-D-Arg-OH was dissolved in 20% ethanol-0.05 M Tris-HCl buffer, pH 7.8, containing 0.15 M NaCl and 5 mM CaCl2 to make a concentration of 5×10^-4 M. 0.5 ml of the solution was mixed with 0.1 ml of the purified collagenase (17.4 U/ml) and incubated for 60 minutes at 37° C. After stopping the enzyme reaction by adding 0.1 ml of 5 N-hydrochloric acid, the NABS-peptide fragments released were extracted with 1 ml ethyl acetate, followed by centrifugation at 3,000-5,000 rpm and room temperature for 10 minutes. The degree of hydrolysis was determined by measuring the absorbance of the organic layer at 389 nm.

Experiment [7] has as its system purified collagenase. Nature of the experiment: Hydrolysis of PAB-peptide by purified collagenase (Example 17). Format: biochemical, tadpole. Particulars: 5×10^-4 M in Tris-HCl pH 7.8, collagenase 17.4 U/ml, 60 minutes at 37° C. The protocol:
as §1
PAS-Pro-Gln-Gly-Ile-Ala-Gly-Gln-D-Arg-OH was dissolved in 0.05 M Tris-HCl buffer, pH 7.8, containing 0.15 M NaCl and 5 mM CaCl2 to make a concentration of 5×10^-4 M. 0.1 ml of the solution was mixed with 0.1 ml of the purified collagenase (17.4 U/ml) and incubated for 60 minutes at 37° C. After stopping the enzyme reaction by adding 0.5 ml of 1 N hydrochloric acid, the PAB-peptide fragments released were extracted with 1 ml ethyl acetate after saturated with sodium chloride, and worked up as in Example 16. The degree of hydrolysis was determined by measuring the absorbance of the organic layer at 325 nm.

Where [8] appears, read: synovial fluid of case five, RA.
[9] abbreviates: synovial fluid of case four, OA.
Where [10] appears, read: synovial fluid of case three, RA.

Turning to `CC[C@H](C)[C@H](NC(=O)CNC(=O)[C@H](CCC(N)=O)NC(=O)[C@@H]1CCCN1c1ccc([N+](=O)[O-])cc1[N+](=O)[O-])C(=O)N[C@@H](C)C(=O)NCC(=O)N[C@@H](CCC(N)=O)C(=O)N[C@H](CCCNC(=N)N)C(=O)O` [Example 1, DNP-Pro-Gln-Gly-Ile-Ala-Gly-Gln-D-Arg-OH] (Dnp-PQGIAGQ[dR]-OH), the “00365 (absorbance of the organic layer at 365 nm)” value in experiment [1] (incubation time 0 min) is 0.053; in experiment [1] (incubation time 10 min), 0.054; in experiment [1] (incubation time 20 min) it was 0.056; in experiment [1] (incubation time 40 min), 0.058; in experiment [1] (incubation time 60 min), 0.060; in experiment [1] (incubation time 120 min), 0.063. Moreover, the “00365 (absorbance of the organic layer at 365 nm)” value in experiment [3] (incubation time 0 min) was determined as 0.033; in experiment [3] (incubation time 10 min), 0.051; in experiment [3] (incubation time 20 min), 0.071; in experiment [3] (incubation time 40 min) it was 0.112; in experiment [3] (incubation time 60 min) it was 0.140; in experiment [3] (incubation time 120 min), 0.217. The “increment of 00365” value in experiment [1] (incubation time 10 min) amounted to 0.001; in experiment [1] (incubation time 20 min), 0.002; in experiment [1] (incubation time 40 min), 0.004; in experiment [1] (incubation time 60 min), 0.007; in experiment [1] (incubation time 120 min), 0.010; in experiment [3] (incubation time 10 min) it was 0.018. Moreover, the “increment of 00365” value is given as 0.018 in experiment [3] (incubation time 20 min), 0.079 in experiment [3] (incubation time 40 min), 0.107 in experiment [3] (incubation time 60 min) and 0.184 in experiment [3] (incubation time 120 min). The “Rate of hydrolysis by Collagenase” value in experiment [2] came out at 0.093 OD365/hr. Further, the OD365/0.1 ml ohr was 0.045 OD365/0.1 ml in experiment [4] (setting [8]); 0.042 OD365/0.1 ml in experiment [4] (setting [9]); 0.041 OD365/0.1 ml in experiment [4] (synovial fluid of case one, RA); 0.045 OD365/0.1 ml in experiment [4] (synovial fluid of case six, OA); 0.049 OD365/0.1 ml in experiment [4] (setting [10]); 0.045 OD365/0.1 ml in experiment [4] (synovial fluid of case two, OA). Also, the “OD365/0.1 ml 2hr” value was 0.591 OD365/0.1 ml in experiment [4] (setting [8]); 0.045 OD365/0.1 ml in experiment [4] (setting [9]); 0.058 OD365/0.1 ml in experiment [4] (synovial fluid of case one, RA); 0.041 OD365/0.1 ml in experiment [4] (synovial fluid of case six, OA); 0.695 OD365/0.1 ml in experiment [4] (setting [10]); 0.043 OD365/0.1 ml in experiment [4] (synovial fluid of case two, OA). Also, the OD365/0.1 ml increment in experiment [4] (setting [8]) amounted to 0.546 OD365/0.1 ml; in experiment [4] (setting [9]), 0.003 OD365/0.1 ml; in experiment [4] (synovial fluid of case one, RA), 0.017 OD365/0.1 ml; in experiment [4] (synovial fluid of case six, OA), 0 OD365/0.1 ml; in experiment [4] (setting [10]), 0.646 OD365/0.1 ml. The “Rate of hydrolysis by non-specific peptidases” value in experiment [5] came out at 0 OD365/hr.

Turning to `CC[C@H](C)[C@H](NC(=O)CNC(=O)[C@H](CCC(N)=O)NC(=O)[C@@H]1CCCN1S(=O)(=O)c1ccc(N=Nc2ccc(O)c3ccccc23)cc1)C(=O)N[C@@H](C)C(=O)NCC(=O)N[C@@H](CCC(N)=O)C(=O)N[C@H](CCCNC(=N)N)C(=O)O` [Example 2, NABS-Pro-Gln-Gly-Ile-Ala-Gly-Gln-D-Arg-OH] (X1-PQGIAGQ[dR]-OH), the “degree of hydrolysis, OD389/hr/ml” value in experiment [6] is reported as 0.100 OD389/hr/ml.

With `CC[C@H](C)[C@H](NC(=O)CNC(=O)[C@H](CCC(N)=O)NC(=O)[C@@H]1CCCN1C(=O)c1ccc(N=Nc2ccccc2)cc1)C(=O)N[C@@H](C)C(=O)NCC(=O)N[C@@H](CCC(N)=O)C(=O)N[C@H](CCCNC(=N)N)C(=O)O` [Example 3, PAB-Pro-Gln-Gly-Ile-Ala-Gly-Gln-D-Arg-OH] (X2-PQGIAGQ[dR]-OH), the “degree of hydrolysis, OD325/hr/ml” value in experiment [7] was found to be 1.117 OD325/hr/ml.
